# Where “and” joins values, the source holds several entries; their conditions need not be identical. Equal values may be shown once.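 These data come from cells grown in 96-well plates and exposed to compound for 48 hours at five concentrations. GI50: concentration for 50% inhibition of growth. TGI is the concentration that stops growth completely.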 Where a SMILES comes first, the peptide text is derived from it. [ ]: non-standard residue; d: D form. 2Nal = N[CH](Cc1ccc2ccccc2c1)C(=O)O
# How the values were obtained:
# Assay in all cases: growth of human tumour cells (NCI), 48 h
# T-47D breast = tested on: T-47D breast
# UACC-257 melanoma = tested on: UACC-257 melanoma
# SK-MEL-28 melanoma = tested on: SK-MEL-28 melanoma
# MDA-MB-231 breast = tested on: MDA-MB-231 breast
# LOX IMVI melanoma = tested on: LOX IMVI melanoma
# NCI-H226 lung = tested on: NCI-H226 lung
# BT-549 breast = tested on: BT-549 breast
# MDA-MB-435 = tested on: MDA-MB-435
# SR leukemia = tested on: SR leukemia
# RPMI-8226 leukemia = tested on: RPMI-8226 leukemia
structure (smiles),measurement,setting,value
C=C1C(=O)OC2CC3(C)CCCC(C)C3=CC12 (centres undefined),TGI,T-47D breast,11 µM
same,TGI,UACC-257 melanoma,18.1 µM
same,TGI,SK-MEL-28 melanoma,12.2 µM
same,TGI,MDA-MB-231 breast,26.9 µM
same,TGI,LOX IMVI melanoma,4.42 µM
same,TGI,NCI-H226 lung,30.3 µM
same,TGI,BT-549 breast,18.5 µM
same,TGI,MDA-MB-435,14.1 µM
same,TGI,SR leukemia,7.04 µM
CCOC(=O)c1csc(NC(=O)COc2cccc(/C=C3\CSc4ccccc4C3=O)c2)n1,GI50,T-47D breast,6.79 µM
same,TGI,T-47D breast,26.7 µM
same,GI50,RPMI-8226 leukemia,> 100 µM
same,TGI,RPMI-8226 leukemia,> 100 µM
same,GI50,UACC-257 melanoma,5.72 µM
same,TGI,UACC-257 melanoma,16.7 µM
same,GI50,SK-MEL-28 melanoma,2510 nM
same,TGI,SK-MEL-28 melanoma,6.18 µM
same,GI50,MDA-MB-231 breast,3.87 µM
same,TGI,MDA-MB-231 breast,19.1 µM
same,GI50,LOX IMVI melanoma,71 nM
same,TGI,LOX IMVI melanoma,0.208 µM
same,GI50,NCI-H226 lung,1520 nM
same,TGI,NCI-H226 lung,3.41 µM
same,GI50,BT-549 breast,2290 nM
same,TGI,BT-549 breast,6.22 µM
same,GI50,MDA-MB-435,2050 nM
same,TGI,MDA-MB-435,5.06 µM
C[C@@H]1CC[C@@H]2[C@@H](C)C[C@H]3[C@@H]4C(C)(C)OC(=O)[C@]4(C)C(=O)[C@@]23C1=O,GI50,T-47D breast,65.3 µM
same,TGI,T-47D breast,> 100 µM
same,TGI,RPMI-8226 leukemia,> 100 µM
same,TGI,UACC-257 melanoma,> 100 µM
same,TGI,SK-MEL-28 melanoma,> 100 µM
same,GI50,MDA-MB-231 breast,> 100 µM
same,TGI,MDA-MB-231 breast,> 100 µM
same,TGI,LOX IMVI melanoma,> 100 µM
same,TGI,NCI-H226 lung,> 100 µM
same,TGI,BT-549 breast,> 100 µM
same,TGI,MDA-MB-435,> 100 µM
COC(=O)C(=O)C(C(=O)C(=O)Nc1ccc(C)cc1)c1nc2ccc(C(=O)c3ccccc3)cc2[nH]c1=O (centres undefined),TGI,T-47D breast,> 100 µM
same,TGI,RPMI-8226 leukemia,> 100 µM
same,TGI,UACC-257 melanoma,> 100 µM
same,TGI,SK-MEL-28 melanoma,> 100 µM
same,TGI,MDA-MB-231 breast,> 100 µM
same,TGI,LOX IMVI melanoma,> 100 µM
same,TGI,NCI-H226 lung,> 100 µM
same,TGI,BT-549 breast,> 100 µM
same,TGI,MDA-MB-435,> 100 µM
NNC(=S)Nc1cccc(Cl)c1,TGI,T-47D breast,> 100 µM
same,TGI,RPMI-8226 leukemia,> 100 µM
same,TGI,UACC-257 melanoma,> 100 µM
same,TGI,SK-MEL-28 melanoma,> 100 µM
same,TGI,MDA-MB-231 breast,> 100 µM
same,TGI,LOX IMVI melanoma,> 100 µM
same,TGI,BT-549 breast,> 100 µM
same,TGI,MDA-MB-435,> 100 µM
CC(C)C(NC(=O)C(CCCCN)NC(=O)C(Cc1c[nH]c2ccccc12)NC(=O)C(Cc1ccc(O)cc1)NC(=O)C(CS)NC(=O)C(N)Cc1ccc2ccccc2c1)C(=O)NC(CS)C(=O)NC(C(N)=O)C(C)O (centres undefined) (H-[2Nal]CYWKVCT-NH2; configuration not given here),TGI,T-47D breast,> 12.5 µM
same,GI50,RPMI-8226 leukemia,> 100 µM
same,TGI,RPMI-8226 leukemia,> 100 µM
same,GI50,UACC-257 melanoma,> 100 µM
same,TGI,UACC-257 melanoma,> 100 µM
same,TGI,SK-MEL-28 melanoma,> 100 µM
same,TGI,MDA-MB-231 breast,> 12.5 µM
same,TGI,LOX IMVI melanoma,> 12.5 µM
same,TGI,NCI-H226 lung,> 12.5 µM
same,TGI,MDA-MB-435,> 12.5 µM
same,GI50,SR leukemia,> 100000 nM
same,TGI,SR leukemia,> 100 µM
CC(C)CCC(=O)[C@@H](C)[C@H]1[C@@H](OC2OCC(O)C(O)C2NS(C)(=O)=O)C[C@H]2[C@@H]3CC=C4C[C@@H](O)CC[C@]4(C)[C@H]3CC[C@]12C (some centres undefined),GI50,T-47D breast,3.93 µM
same,TGI,T-47D breast,23 µM
same,GI50,RPMI-8226 leukemia,0.12 µM
same,TGI,RPMI-8226 leukemia,0.419 µM
same,GI50,UACC-257 melanoma,0.922 µM
same,TGI,UACC-257 melanoma,2.31 µM
same,GI50,SK-MEL-28 melanoma,530 nM
same,TGI,SK-MEL-28 melanoma,1.53 µM
same,GI50,MDA-MB-231 breast,2 µM
same,TGI,MDA-MB-231 breast,8.65 µM
same,GI50,LOX IMVI melanoma,1190 nM
same,TGI,LOX IMVI melanoma,5.22 µM
same,GI50,BT-549 breast,245 nM
same,TGI,BT-549 breast,4.93 µM
same,GI50,MDA-MB-435,880 nM
same,TGI,MDA-MB-435,2.16 µM
same,GI50,SR leukemia,1030 nM
same,TGI,SR leukemia,8.39 µM
CSc1ccc(C2=NN(C(C)=O)C(c3ccc(F)cc3)C2)cc1 (centres undefined),GI50,T-47D breast,11.5 µM
same,TGI,T-47D breast,41.4 µM
same,GI50,RPMI-8226 leukemia,12 µM
same,TGI,RPMI-8226 leukemia,32.5 µM
same,GI50,UACC-257 melanoma,22.4 µM
same,TGI,UACC-257 melanoma,45 µM
same,GI50,SK-MEL-28 melanoma,17000 nM
same,TGI,SK-MEL-28 melanoma,34.2 µM
same,GI50,MDA-MB-231 breast,10.7 µM
same,TGI,MDA-MB-231 breast,28.6 µM
same,GI50,LOX IMVI melanoma,10800 nM
same,TGI,LOX IMVI melanoma,23.2 µM
same,GI50,NCI-H226 lung,13700 nM
same,TGI,NCI-H226 lung,31.5 µM
same,GI50,BT-549 breast,20300 nM
same,TGI,BT-549 breast,40.2 µM
same,GI50,MDA-MB-435,15000 nM
same,TGI,MDA-MB-435,32.4 µM
CN(O)C(=S)c1ccccc1,TGI,T-47D breast,> 100 µM
same,TGI,RPMI-8226 leukemia,1.68 µM
same,TGI,UACC-257 melanoma,57.8 µM
same,TGI,SK-MEL-28 melanoma,> 100 µM
same,TGI,MDA-MB-231 breast,> 24.9 µM
same,TGI,LOX IMVI melanoma,7.76 µM
same,TGI,NCI-H226 lung,> 100 µM
same,TGI,BT-549 breast,> 100 µM
same,TGI,MDA-MB-435,> 100 µM
O=C(Nc1cccc(Cl)c1)c1cc(N=Nc2ccc([N+](=O)[O-])cc2Cl)ccc1O,GI50,T-47D breast,1.62 µM
same,TGI,T-47D breast,5.57 µM
same,GI50,UACC-257 melanoma,2.55 µM
same,TGI,UACC-257 melanoma,6.52 µM
same,GI50,SK-MEL-28 melanoma,2880 nM
same,TGI,SK-MEL-28 melanoma,10.9 µM
same,GI50,MDA-MB-231 breast,2.03 µM
same,TGI,MDA-MB-231 breast,5.27 µM
same,GI50,LOX IMVI melanoma,3020 nM
same,TGI,LOX IMVI melanoma,10.8 µM
same,GI50,NCI-H226 lung,2880 nM
same,TGI,NCI-H226 lung,16.6 µM
same,GI50,BT-549 breast,2350 nM
same,TGI,BT-549 breast,7.31 µM
same,GI50,MDA-MB-435,2340 nM
same,TGI,MDA-MB-435,5.96 µM
same,GI50,SR leukemia,1600 nM
same,TGI,SR leukemia,4.29 µM
COc1ccc(CNc2cnc3cc(N)cc(N)c3n2)cc1,GI50,T-47D breast,73.8 µM
same,TGI,T-47D breast,> 100 µM
same,GI50,RPMI-8226 leukemia,23 µM
same,TGI,RPMI-8226 leukemia,82.3 µM
same,GI50,UACC-257 melanoma,21.4 µM
same,TGI,UACC-257 melanoma,39.7 µM
same,GI50,SK-MEL-28 melanoma,58000 nM
same,TGI,SK-MEL-28 melanoma,> 100 µM
same,GI50,MDA-MB-231 breast,14.2 µM
same,TGI,MDA-MB-231 breast,29.6 µM
same,GI50,LOX IMVI melanoma,17400 nM
same,TGI,LOX IMVI melanoma,32 µM
same,GI50,BT-549 breast,17800 nM
same,TGI,BT-549 breast,37.5 µM
same,GI50,MDA-MB-435,21700 nM
same,TGI,MDA-MB-435,39 µM
COc1ccc(/C=C\c2cc(OC)c(OC)c(OC)c2)c(O)c1O,TGI,T-47D breast,> 79.7 µM
same,GI50,RPMI-8226 leukemia,0.0635 µM
same,TGI,RPMI-8226 leukemia,20.9 µM and 9.14 µM
same,GI50,UACC-257 melanoma,0.142 µM
same,TGI,UACC-257 melanoma,28.7 µM and 52.3 µM
same,GI50,SK-MEL-28 melanoma,655 nM
same,TGI,SK-MEL-28 melanoma,49.6 µM and 60.2 µM
same,TGI,MDA-MB-231 breast,18.5 µM
same,GI50,LOX IMVI melanoma,51.2 nM
same,TGI,LOX IMVI melanoma,16.9 µM and 8.07 µM
same,GI50,NCI-H226 lung,297 nM and 50 nM
same,TGI,NCI-H226 lung,1.69 µM and 1.62 µM
same,TGI,BT-549 breast,32.3 µM
same,TGI,MDA-MB-435,0.0163 µM
CC(O)CN1c2ccccc2Sc2ccc(Cl)cc21 (centres undefined),TGI,T-47D breast,> 10 µM
same,TGI,RPMI-8226 leukemia,> 10 µM
same,TGI,UACC-257 melanoma,> 10 µM
same,TGI,SK-MEL-28 melanoma,> 10 µM
same,TGI,MDA-MB-231 breast,> 10 µM
same,TGI,LOX IMVI melanoma,> 10 µM
same,TGI,NCI-H226 lung,> 10 µM
same,TGI,BT-549 breast,> 10 µM
same,TGI,MDA-MB-435,> 10 µM

# — PubChem BioAssay (NCI)
